Columns and labels:
[1] = biological target: T1, ATP-dependent translocase ABCB1 (Homo sapiens, UniProt P08183); conditions: l5178, 20 min, 100 µM
[2] = biological target: T1, ATP-dependent translocase ABCB1

T1 sequence (P08183 whole entry): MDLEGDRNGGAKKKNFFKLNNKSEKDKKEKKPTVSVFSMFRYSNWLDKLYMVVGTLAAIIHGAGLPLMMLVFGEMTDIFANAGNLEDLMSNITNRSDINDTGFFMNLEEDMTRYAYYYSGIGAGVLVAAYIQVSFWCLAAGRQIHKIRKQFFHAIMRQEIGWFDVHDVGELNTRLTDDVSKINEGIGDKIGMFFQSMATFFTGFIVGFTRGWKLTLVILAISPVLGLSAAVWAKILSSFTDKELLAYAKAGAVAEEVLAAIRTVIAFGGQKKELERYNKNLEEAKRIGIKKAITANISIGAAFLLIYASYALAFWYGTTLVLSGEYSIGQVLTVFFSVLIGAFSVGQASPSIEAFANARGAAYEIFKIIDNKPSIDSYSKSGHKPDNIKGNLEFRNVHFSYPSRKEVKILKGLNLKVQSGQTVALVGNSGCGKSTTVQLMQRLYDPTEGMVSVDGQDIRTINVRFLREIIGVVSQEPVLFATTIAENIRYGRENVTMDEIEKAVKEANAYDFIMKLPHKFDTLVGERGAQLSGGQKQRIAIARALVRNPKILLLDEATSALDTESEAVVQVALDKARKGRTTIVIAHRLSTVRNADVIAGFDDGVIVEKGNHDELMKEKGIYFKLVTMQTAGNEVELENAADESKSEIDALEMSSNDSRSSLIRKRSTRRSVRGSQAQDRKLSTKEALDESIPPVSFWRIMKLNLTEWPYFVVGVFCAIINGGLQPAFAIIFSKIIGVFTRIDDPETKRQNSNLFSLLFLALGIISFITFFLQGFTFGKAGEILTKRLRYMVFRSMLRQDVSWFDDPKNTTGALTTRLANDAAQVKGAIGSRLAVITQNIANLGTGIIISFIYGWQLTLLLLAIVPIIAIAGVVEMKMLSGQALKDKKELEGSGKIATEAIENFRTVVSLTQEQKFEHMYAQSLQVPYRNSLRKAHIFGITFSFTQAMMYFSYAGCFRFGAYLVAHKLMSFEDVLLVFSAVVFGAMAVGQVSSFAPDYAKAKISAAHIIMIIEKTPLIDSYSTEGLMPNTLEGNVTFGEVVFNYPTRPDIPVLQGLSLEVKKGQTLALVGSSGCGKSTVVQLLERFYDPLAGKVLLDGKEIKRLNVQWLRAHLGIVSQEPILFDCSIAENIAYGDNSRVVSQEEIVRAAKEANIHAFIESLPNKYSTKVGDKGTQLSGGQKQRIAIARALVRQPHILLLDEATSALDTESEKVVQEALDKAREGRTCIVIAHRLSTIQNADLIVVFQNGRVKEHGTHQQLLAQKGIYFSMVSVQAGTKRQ

| Alpha max [1] | IC50 [2] | SMILES |
| --- | --- | --- |
| 0.74 | 6.5 µM | O=C1NCCN1CCN1CCC(c2cn(-c3ccc(F)cc3)c3ccc(Cl)cc23)CC1 [SERTINDOLE] |
| 0.99 | – | O=C1CCc2ccc(OCCCCN3CCN(c4cccc(Cl)c4Cl)CC3)cc2N1 [ARIPIPRAZOLE] |
| 0.19 | – | O=C1Cc2cc(CCN3CCN(c4nsc5ccccc45)CC3)c(Cl)cc2N1 [ZIPRASIDONE] |

Further lines, the compound ahead of its results:

| SMILES | Alpha max [1] | IC50 [2] |
| --- | --- | --- |
| CC(C)[C@H]1CC[C@H](C(=O)N[C@H](Cc2ccccc2)C(=O)O)CC1 [NATEGLINIDE] | 0 | – |
| CCOc1cc(CC(=O)N[C@@H](CC(C)C)c2ccccc2N2CCCCC2)ccc1C(=O)O [REPAGLINIDE] | 0.35 | – |
| C=CCc1ccccc1OCC(O)CNC(C)C (centres undefined) [ALPRENOLOL] | 0.05 | – |
| CC1(C)S[C@@H]2[C@H](NC(=O)[C@H](C(=O)O)c3ccsc3)C(=O)N2[C@H]1C(=O)O [TICARCILLIN] | 0 | – |
| CCN(CC)CCCN(c1ccccc1)C1Cc2ccccc2C1 [APRINDINE] | 0.16 | – |
